Source: the supplement of paper PMC10477900
pIC50: −log10 of the molar value. Where a name gives a salt, the structure may show the parent alone.

Tests used:
HCT116 [1] = settings: 72 h
Method: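 HCT116 control and MTA1-KO (CRISPR) HCT116 cells were seeded in 384-well plates (800 cells/well), treated 16 h later with 237 metabolism-related anticancer drugs at five doses (10 uM, 2 uM, 400 nM, 80 nM, 16 nM) for 72 h, two replicates; viability by CCK8. Values are % inhibition of viability relative to untreated cells, plus fitted IC50.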

HCT116 [2] = test: viability inhibition vs untreated; higher = more cytotoxic; settings: 72 h

SMILES | pIC50 (HCT116 [1]; genotype: MTA1-KO) | pIC50 (HCT116 [1]; genotype: control) | viability inhibition (HCT116 [2]; genotype: MTA1-KO, 16 nM) | viability inhibition (HCT116 [2]; genotype: MTA1-KO, 80 nM) | viability inhibition (HCT116 [2]; genotype: MTA1-KO, 400 nM) | viability inhibition (HCT116 [2]; genotype: MTA1-KO, 2000 nM) | viability inhibition (HCT116 [2]; genotype: MTA1-KO, 10000 nM) | viability inhibition (HCT116 [2]; genotype: control, 16 nM) | viability inhibition (HCT116 [2]; genotype: control, 80 nM) | viability inhibition (HCT116 [2]; genotype: control, 400 nM) | viability inhibition (HCT116 [2]; genotype: control, 2000 nM) | viability inhibition (HCT116 [2]; genotype: control, 10000 nM)
O=c1c2cc(O)c(O)cc2oc2cc(O)c([C@@H]3O[C@H](CO)[C@@H](O)[C@H](O)[C@H]3O)c(O)c12 [Mangiferin] | < 5.00 | < 5.00 | -12.5% | -17.6% | -11.2% | -10.4% | -14.8% | -7.62% | 8.64% | 4.62% | 6.09% | 1.62%
COc1ccc2[nH]cc(CCNC(C)=O)c2c1 [Melatonine] | < 5.00 | < 5.00 | 11.6% | 12.1% | 6.76% | 7.43% | 8.55% | 10.2% | 9.39% | 9.78% | 24.1% | 14.5%
S=c1nc[nH]c2nc[nH]c12 [Mercaptopurine] | 5.18 | 5.56 | -23.8% | -26.8% | -16.8% | -13.3% | 63% | -20.2% | -15.2% | -11.9% | 24.6% | 90.5%
CN(C)C(=N)N=C(N)N [Metformin hydrochloride] | < 5.00 | < 5.00 | -20.9% | -15.7% | -16.8% | -16.1% | -14.1% | -3.73% | -8.51% | 4.88% | 7.24% | 3.98%
CC(=O)N=c1sc(S(N)(=O)=O)nn1C [Methazolamide] | < 5.00 | < 5.00 | -8.89% | -28.2% | -14.6% | -23.2% | -21.9% | 6.26% | -6.63% | -3.65% | -3.04% | -0.243%
COc1ccccc1OCC(O)COC(N)=O (stereo not drawn) [Methocarbamol] | < 5.00 | < 5.00 | -9.86% | -16.2% | -9.99% | -8.84% | -12% | -5.51% | -3.73% | -0.351% | 5.2% | 11%
CN(Cc1cnc2nc(N)nc(N)c2n1)c1ccc(C(=O)N[C@@H](CCC(=O)O)C(=O)O)cc1 [Methotrexate] | < 5.00 | 5.05 | 7.18% | -2.93% | -6.45% | -1.18% | 33% | 17.9% | 13.5% | 16.6% | 6.71% | 63.6%
CC[C@H](C)C(=O)O[C@H]1CCC=C2C=C[C@H](C)[C@H](CC[C@@H]3C[C@@H](O)CC(=O)O3)[C@H]21 [Mevastatin] | < 5.00 | < 5.00 | -20.4% | -7.46% | -17.3% | -17.5% | -22.4% | -7.08% | 9.09% | 5.14% | 1.68% | 23.8%
O=C(c1ccc(NS(=O)(=O)c2cccc3cccnc23)cc1)N1CCN(CC2CC2)CC1 [Mitapivat] | < 5.00 | < 5.00 | 1.32% | 0.728% | -12.6% | -14.4% | -2.88% | -8.53% | -14.2% | -22.8% | -10.3% | -12.3%
O=C(O)c1cccnc1Nc1cccc(C(F)(F)F)c1 [Niflumic acid] | < 5.00 | < 5.00 | -15.2% | -17.4% | -11.9% | -15.8% | -9.84% | 3.66% | 11.1% | -0.91% | -2.33% | 0.571%
Cc1ccc2nc(N)[nH]c(=O)c2c1Sc1ccncc1 [Nolatrexed] | 5.02 | < 5.00 | 8.71% | 2.94% | -1.21% | 1.75% | 76% | -21.6% | -20.5% | 4.76% | -22.2% | -11.3%
COc1cccc2cc(-c3nc(C4CCC(C(=O)O)CC4)n4ncnc(N)c34)[nH]c12 (stereo not drawn) [OSI027] | < 5.00 | < 5.00 | 12.5% | 9.23% | 10.1% | -2.44% | 2.62% | -12.5% | -20.5% | -21.1% | 13.8% | 42.3%
Cc1c(-c2cnccn2)ssc1=S [Oltipraz] | < 5.00 | < 5.00 | -30.8% | -24.9% | -26.7% | -26.6% | -33.9% | -15.3% | -6.71% | -20.1% | -19.1% | -6.16%
COC(=O)N1CCN(Cc2cccc(NC(=O)Nc3ccc(C)nc3)c2F)CC1 [Omecamtiv mecarbil] | < 5.00 | < 5.00 | -10% | -12.1% | -17.5% | -17.9% | 8.94% | 8.94% | 4.13% | -7.43% | 1.24% | 5.67%
CCCCCCCCCCC[C@@H](C[C@@H]1OC(=O)[C@H]1CCCCCC)OC(=O)[C@H](CC(C)C)NC=O [Orlistat] | < 5.00 | < 5.00 | -6.57% | -2.27% | -2.16% | -13.4% | 15.7% | 4.58% | -13.3% | -7.69% | -2.81% | 37%
O=C(Nc1ccc(O)cc1)c1ccccc1O [Osalmid] | < 5.00 | < 5.00 | -19.6% | -14.3% | -16% | -6.29% | -7.75% | -15.5% | -18.3% | -10.9% | -10.7% | 5%
OC(CNc1ccccc1)Cn1c2ccc(Br)cc2c2cc(Br)ccc21 (stereo not drawn) [P7C3] | < 5.00 | < 5.00 | -3.09% | -13% | -15.4% | -15.3% | 6.71% | 10.1% | -2.92% | 4.14% | -4.2% | 7.54%
O=C(/C=C/c1ccc2ccccc2n1)c1ccncc1 [PFK015] | 5.57 | 5.66 | -28% | -23.8% | -16.3% | -14% | 124% | -7.66% | -7.18% | -5.47% | 34% | 124%
O=C(/C=C/c1ccc2ccc(C(F)(F)F)cc2n1)c1ccncc1 [PFK158] | 5.51 | 5.41 | -5.2% | -29.6% | -31.5% | -28.1% | 121% | 8.64% | -5.17% | 1.7% | -5.11% | 96.2%
